ChEMBL document CHEMBL6178015, “Discovery of a Novel Serine-Targeting Covalent Inhibitor against HCES2A for Treating Drug-induced Diarrhea and Ulcerative Colitis” (J Med Chem, 2025)
Activity calls are given as the source filed them. The rule behind the calls is not given here.

Legend:
[1] = Inhibition of human CES2A using fluorescein diacetate as substrate preincubated for 3 mins followed by substrate addition and measured after 30 mins by fluorescence microplate reader
Mus musculus [2] = assay: Antiinflammatory activity against DSS-induced ulcerative colitis mouse model assessed as restoration of colon histology at 700 mg/kg,IG administered once daily 7 days by AB-PAS staining based analysis; format: functional, organism-based; settings: time 7.0 day
Mus musculus [3] = assay: Antiinflammatory activity against DSS-induced ulcerative colitis mouse model assessed as epithelial damage at 700 mg/kg,IG administered once daily 7 days by AB-PAS staining based analysis; format: functional, organism-based; settings: time 7.0 day
Mus musculus [4] = assay: Antiinflammatory activity against DSS-induced ulcerative colitis mouse model assessed as goblet cell loss at 700 mg/kg,IG administered once daily 7 days by AB-PAS staining based analysis; format: functional, organism-based; settings: time 7.0 day
[5] = Inhibition of human CES1A using NLMe as substrate preincubated for 3 mins followed by substrate addition and measured after 20 mins by chemiluminescence analysis
Homo sapiens [6] = organism: Homo sapiens; assay: Irreversible inhibition of human CES2A at 0.02 nM preincubated for 33 mins and measured after 8 hrs dialysis by fluorescence microplate reader; settings: time 513.0 min
Mus musculus [7] = assay: Reversal of irinotecan-induced gut toxicity in C57BL/6J mouse bearing MC38 cells assessed as restoration of TNF-alpha levels in colon tissues at 30 to 60 mg/kg,po administered daily and measured after 14 days by ELISA; format: functional, organism-based; settings: dose 30-60 mg/kg, time 14.0 day
Mus musculus [8] = assay: Antiinflammatory activity against DSS-induced ulcerative colitis mouse model assessed as alleviation in body weight loss at 30 to 60 mg/kg,IG administered once daily 7 days; format: functional, organism-based; settings: dose 30-60 mg/kg, time 7.0 day
Mus musculus [9] = assay: Reversal of irinotecan-induced gut toxicity in C57BL/6J mouse bearing MC38 cells assessed as change in tumor size at 30 to 60 mg/kg,po administered daily and measured after 14 days; format: functional, organism-based; settings: dose 30-60 mg/kg, time 14.0 day
Mus musculus [10] = assay: Reversal of irinotecan-induced gut toxicity in C57BL/6J mouse bearing MC38 cells assessed as weight recovery at 30 to 60 mg/kg,po administered daily and measured after 14 days; format: functional, organism-based; settings: dose 30-60 mg/kg, time 14.0 day
[11] = target: Voltage-gated inwardly rectifying potassium channel KCNH2 (Homo sapiens, UniProt Q12809); assay: Inhibition of hERG expressed in HEK293 cells; format: toxicity, cell-based
Chain of Voltage-gated inwardly rectifying potassium channel KCNH2 (Q12809 whole entry): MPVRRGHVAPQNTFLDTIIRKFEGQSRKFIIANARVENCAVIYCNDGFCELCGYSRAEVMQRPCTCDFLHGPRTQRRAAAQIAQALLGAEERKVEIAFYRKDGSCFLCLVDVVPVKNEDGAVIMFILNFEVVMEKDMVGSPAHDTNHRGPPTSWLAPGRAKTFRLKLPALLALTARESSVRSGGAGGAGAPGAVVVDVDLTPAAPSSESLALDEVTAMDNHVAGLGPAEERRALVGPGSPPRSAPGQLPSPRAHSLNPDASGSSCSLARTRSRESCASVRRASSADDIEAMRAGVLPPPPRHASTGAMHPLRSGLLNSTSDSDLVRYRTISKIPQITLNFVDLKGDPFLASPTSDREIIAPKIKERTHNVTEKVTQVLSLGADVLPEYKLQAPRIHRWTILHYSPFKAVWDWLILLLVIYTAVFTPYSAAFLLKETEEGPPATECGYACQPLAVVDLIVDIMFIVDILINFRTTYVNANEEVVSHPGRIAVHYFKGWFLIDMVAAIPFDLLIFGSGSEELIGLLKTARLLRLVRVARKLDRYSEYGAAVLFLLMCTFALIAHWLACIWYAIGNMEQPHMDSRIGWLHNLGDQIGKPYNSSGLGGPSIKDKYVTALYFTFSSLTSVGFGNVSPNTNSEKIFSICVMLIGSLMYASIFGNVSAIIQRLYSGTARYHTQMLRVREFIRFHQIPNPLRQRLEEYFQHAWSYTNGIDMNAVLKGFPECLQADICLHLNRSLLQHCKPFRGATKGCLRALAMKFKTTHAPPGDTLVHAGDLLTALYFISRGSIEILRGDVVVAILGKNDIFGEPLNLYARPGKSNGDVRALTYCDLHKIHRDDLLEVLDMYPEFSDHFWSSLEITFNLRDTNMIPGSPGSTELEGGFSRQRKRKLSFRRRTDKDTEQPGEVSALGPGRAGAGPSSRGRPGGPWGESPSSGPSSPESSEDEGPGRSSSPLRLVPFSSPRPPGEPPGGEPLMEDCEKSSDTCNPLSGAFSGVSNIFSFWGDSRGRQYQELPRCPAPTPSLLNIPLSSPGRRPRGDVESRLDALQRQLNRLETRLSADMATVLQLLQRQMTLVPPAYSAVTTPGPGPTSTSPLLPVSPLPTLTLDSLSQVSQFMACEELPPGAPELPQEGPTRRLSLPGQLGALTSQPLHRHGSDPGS

Mus musculus [12] = assay: Reversal of irinotecan-induced gut toxicity in C57BL/6J mouse bearing MC38 cells assessed as amelioration of inflammatory cell infiltration loss at 30 to 60 mg/kg,po administered daily and measured after 14 days by H and E staining based analysis; format: functional, organism-based; settings: dose 30-60 mg/kg, time 14.0 day
Mus musculus [13] = assay: Antiinflammatory activity against DSS-induced ulcerative colitis mouse model assessed as decrease in DAI score at 30 to 60 mg/kg,IG administered once daily 7 days; format: functional, organism-based; settings: dose 30-60 mg/kg, time 7.0 day
Mus musculus [14] = assay: Antiinflammatory activity against DSS-induced ulcerative colitis mouse model assessed as restoration of IL-1beta levels in colon tissues at 30 to 60 mg/kg,IG administered once daily 7 days by ELISA; format: functional, organism-based; settings: dose 30-60 mg/kg, time 7.0 day
[15] = Irreversible inhibition of human CES2A assessed as inhibition constant incubated for 5 to 30 mins
Mus musculus [16] = assay: Antiinflammatory activity against DSS-induced ulcerative colitis mouse model assessed as upregulation of ZO-1 expression in colon tissues at 700 mg/kg,IG administered once daily 7 days by immunohistochemical analysis; format: functional, organism-based; settings: time 7.0 day
Mus musculus [17] = assay: Antiinflammatory activity against DSS-induced ulcerative colitis mouse model assessed as restoration of TNF-alpha levels in colon tissues at 30 to 60 mg/kg,IG administered once daily 7 days by ELISA; format: functional, organism-based; settings: dose 30-60 mg/kg, time 7.0 day
Mus musculus [18] = assay: Reversal of irinotecan-induced gut toxicity in C57BL/6J mouse bearing MC38 cells assessed as reduction in colon shortening at 30 to 60 mg/kg,po administered daily and measured after 14 days; format: functional, organism-based; settings: dose 30-60 mg/kg, time 14.0 day
Mus musculus [19] = assay: Reversal of irinotecan-induced gut toxicity in C57BL/6J mouse bearing MC38 cells assessed as amelioration of goblet cell apoptosis at 30 to 60 mg/kg,po administered daily and measured after 14 days by H and E staining based analysis; format: functional, organism-based; settings: dose 30-60 mg/kg, time 14.0 day
Mus musculus [20] = assay: Reversal of irinotecan-induced gut toxicity in C57BL/6J mouse bearing MC38 cells assessed as increase in claudin-1 expression level in colon tissues at 30 to 60 mg/kg,po administered daily and measured after 14 days by immunohistochemical analysis; format: functional, organism-based; settings: dose 30-60 mg/kg, time 14.0 day
HepG2 = assay: Inhibition of human CES2A in HepG2 cells assessed as decrease in green fluorescence at 5 to 60 nM incubated for 1 hrs by NCEN and Hoechst 33342 staining based assay; format: cell-based; settings: dose 5-60 nM
[21] = Irreversible inhibition of human CES2A using fluorescein diacetate as substrate preincubated for 3 mins followed by substrate addition by fluorescence microplate reader
Homo sapiens [22] = organism: Homo sapiens; assay: Potency index, ratio of LC-20W IC50 to test compound IC50 for inhibition of human CES2A using fluorescein diacetate as substrate
Mus musculus [23] = assay: Reversal of irinotecan-induced gut toxicity in C57BL/6J mouse bearing MC38 cells assessed as restoration of IL-6 levels in colon tissues at 30 to 60 mg/kg,po administered daily and measured after 14 days by ELISA; format: functional, organism-based; settings: dose 30-60 mg/kg, time 14.0 day
Mus musculus [24] = assay: Antiinflammatory activity against DSS-induced ulcerative colitis mouse model assessed as inhibition of colon contracture at 30 to 60 mg/kg,IG administered once daily 7 days; format: functional, organism-based; settings: dose 30-60 mg/kg, time 7.0 day
Mus musculus [25] = assay: Antiinflammatory activity against DSS-induced ulcerative colitis mouse model assessed as reduction in crypt destruction in colon tissues at 30 to 60 mg/kg,IG administered once daily 7 days by H and E staining based analysis; format: functional, organism-based; settings: dose 30-60 mg/kg, time 7.0 day
Mus musculus [26] = assay: Reversal of irinotecan-induced gut toxicity in C57BL/6J mouse bearing MC38 cells assessed as reduction in diarrhea at 30 to 60 mg/kg,po administered daily and measured after 14 days; format: functional, organism-based; settings: dose 30-60 mg/kg, time 14.0 day
Mus musculus [27] = assay: Antiinflammatory activity against DSS-induced ulcerative colitis mouse model assessed as upregulation of claudin-1 expression in colon tissues at 700 mg/kg,IG administered once daily 7 days by immunohistochemical analysis; format: functional, organism-based; settings: time 7.0 day
Mus musculus [28] = assay: Reversal of irinotecan-induced gut toxicity in C57BL/6J mouse bearing MC38 cells assessed as amelioration of epithelial crypts loss at 30 to 60 mg/kg,po administered daily and measured after 14 days by H and E staining based analysis; format: functional, organism-based; settings: dose 30-60 mg/kg, time 14.0 day
Mus musculus [29] = assay: Reversal of irinotecan-induced gut toxicity in C57BL/6J mouse bearing MC38 cells assessed as increase in ZO-1 expression level in colon tissues at 30 to 60 mg/kg,po administered daily and measured after 14 days by immunohistochemical analysis; format: functional, organism-based; settings: dose 30-60 mg/kg, time 14.0 day
Mus musculus [30] = assay: Antiinflammatory activity against DSS-induced ulcerative colitis mouse model assessed as preservation of colonic mucosal structure at 30 to 60 mg/kg,IG administered once daily 7 days by H and E staining based analysis; format: functional, organism-based; settings: dose 30-60 mg/kg, time 7.0 day
[31] = Inhibition of human CES2A in HepG2 cells incubated for 1 hrs by NCEN and Hoechst 33342 staining based assay; format: cell-based
[32] = Irreversible inhibition of human CES2A using fluorescein diacetate as substrate preincubated for 33 mins followed by substrate addition by fluorescence microplate reader
Mus musculus [33] = assay: Reversal of irinotecan-induced gut toxicity in C57BL/6J mouse bearing MC38 cells assessed as effect on tumor volume at 30 to 60 mg/kg,po administered daily and measured after 14 days; format: functional, organism-based; settings: dose 30-60 mg/kg, time 14.0 day
Mus musculus [34] = assay: Antiinflammatory activity against DSS-induced ulcerative colitis mouse model assessed as reduction in inflammatory infiltration in lamina propria at 30 to 60 mg/kg,IG administered once daily 7 days by H and E staining based analysis; format: functional, organism-based; settings: dose 30-60 mg/kg, time 7.0 day
Mus musculus [35] = assay: Reversal of irinotecan-induced gut toxicity in C57BL/6J mouse bearing MC38 cells assessed as restoration of IL-1beta levels in colon tissues at 30 to 60 mg/kg,po administered daily and measured after 14 days by ELISA; format: functional, organism-based; settings: dose 30-60 mg/kg, time 14.0 day
Homo sapiens [36] = organism: Homo sapiens; assay: Selectivity index, ratio of IC50 for inhibition of human CES1A to IC50 for inhibition of human CES2A
hERG (KCNH2) = hERG (KCNH2) (Homo sapiens, UniProt Q12809); assay: Inhibition of hERG expressed in HEK293 cells at 10 uM relative to control; format: toxicity, cell-based; settings: HEK293 cells that express hERG
Chain of hERG (KCNH2) (Q12809 whole entry): as above

Mus musculus [37] = assay: Antiinflammatory activity against DSS-induced ulcerative colitis mouse model assessed as restoration of IL-6 levels in colon tissues at 30 to 60 mg/kg,IG administered once daily 7 days by ELISA; format: functional, organism-based; settings: dose 30-60 mg/kg, time 7.0 day
Mus musculus [38] = assay: Reversal of irinotecan-induced gut toxicity in C57BL/6J mouse bearing MC38 cells assessed as effect on tumor weight at 30 to 60 mg/kg,po administered daily and measured after 14 days; format: functional, organism-based; settings: dose 30-60 mg/kg, time 14.0 day
Homo sapiens [39] = organism: Homo sapiens; assay: Irreversible inhibition of human CES2A assessed as inactivation constant incubated for 5 to 30 mins; settings: time 5-30 min
Mus musculus [40] = assay: Antiinflammatory activity against DSS-induced ulcerative colitis mouse model assessed as upregulation of occludin expression in colon tissues at 700 mg/kg,IG administered once daily 7 days by immunohistochemical analysis; format: functional, organism-based; settings: time 7.0 day

## CCCCCCC(=O)c1cccc2oc(-c3ccccc3NC(=O)OCCCC)cc12
[1]
  IC50: 1260 nM

## O=C(O)c1cc(/N=N/c2ccc(S(=O)(=O)Nc3ccccn3)cc2)ccc1O
Mus musculus [2]
  Activity: Active
Mus musculus [3]
  Activity: inactive
Mus musculus [4]
  Activity: inactive

## CCCCCCCCC(=O)c1cccc2oc(-c3cc(OC)ccc3OC(=O)N3CCCC3)cc12
[5]
  IC50: 6.95 nM
Homo sapiens [6]
  inhibition: Active
Mus musculus [7]
  Activity: Active
Mus musculus [8]
  Activity: Active
Mus musculus [2]
  Activity: Active
Mus musculus [9]
  Activity: inactive
Mus musculus [10]
  Activity: Active
[11]
  IC50: > 10 µM
Mus musculus [12]
  Activity: Active
Mus musculus [13]
  Activity: Active
Mus musculus [14]
  Activity: Active
[15]
  Ki: 0.43 nM
Mus musculus [16]
  Activity: Active
Mus musculus [17]
  Activity: Active
Mus musculus [18]
  Activity: Active
Mus musculus [19]
  Activity: Active
Mus musculus [20]
  Activity: Active
HepG2
  inhibition: Active
[21]
  IC50: 0.12 nM
Homo sapiens [22]
  Ratio IC50: 13
[1]
  IC50: 0.118 nM
Mus musculus [23]
  Activity: Active
Mus musculus [24]
  Activity: Active
Mus musculus [25]
  Activity: Active
Mus musculus [26]
  Activity: Active
Mus musculus [27]
  Activity: Active
Mus musculus [28]
  Activity: Active
Mus musculus [29]
  Activity: Active
Mus musculus [30]
  Activity: Active
[31]
  IC50: 19.6 nM
[32]
  IC50: 0.028 nM
Mus musculus [33]
  Activity: Active
Mus musculus [34]
  Activity: Active
Mus musculus [35]
  Activity: Active
Homo sapiens [36]
  Ratio IC50: 59
hERG (KCNH2)
  inhibition at 10 µM: 14.6%
Mus musculus [37]
  Activity: Active
Mus musculus [38]
  Activity: inactive
Homo sapiens [39]
  Kinact: 0.052 min⁻¹
Mus musculus [40]
  Activity: Active

## CCCCCCC(=O)c1cccc2oc(-c3cc(C)ccc3NC(=O)OCC(C)C)cc12
[5]
  IC50: > 10000 nM
[1]
  IC50: 1.04 nM
Homo sapiens [36]
  Ratio IC50: > 9600

## CCCCCCC(=O)c1cccc2oc(-c3cc(OC)ccc3OC(=O)N3CCCC3)cc12
[5]
  IC50: 5.65 nM
[1]
  IC50: 0.249 nM
Homo sapiens [36]
  Ratio IC50: 22.7

## CCCC(=O)c1cccc2oc(-c3ccccc3N)cc12
[1]
  IC50: 11100 nM

## CCCC(=O)c1cccc2oc(-c3cc(C)ccc3N)cc12
[1]
  IC50: 3110 nM

## C=CCOC(=O)Nc1ccccc1-c1cc2c(C(=O)CCCCCC)cccc2o1
[1]
  IC50: 596 nM

## CCCCCCC(=O)c1cccc2oc(-c3ccccc3N)cc12
[1]
  IC50: 944 nM

## CCCCCCC(=O)c1cccc2oc(-c3cc(C)ccc3NC(=O)OCCCC)cc12
[1]
  IC50: 623 nM

## CCCC(=O)c1cccc2oc(-c3cc(C)ccc3NC(=O)OCCCl)cc12
[1]
  IC50: 983 nM

## CCCCCCC(=O)c1cccc2oc(-c3ccccc3NC(=O)OCC(CC)CCCC)cc12 (stereo not given)
[1]
  IC50: 1340 nM

## CCCCCCC(=O)c1cccc2oc(-c3cc(C)ccc3NC(=O)OCc3ccccc3)cc12
[1]
  IC50: 3640 nM

## CCCCCCC(=O)c1cccc2oc(-c3cc(OC)ccc3N)cc12
[1]
  IC50: 1970 nM

## CCCCCCC(=O)c1cccc2oc(-c3ccccc3NC(=O)OCc3ccccc3)cc12
[1]
  IC50: 616 nM
